Calls of active or inactive are those of the source. The calls are words filed in the database; no cut-off is given here.
Assays:
[1] = Synergistic antiproliferative activity against docetaxel-resistant human MDA-MB-231-DTR cells assessed as combination index at 4 uM incubated for 72 hrs in presence of 8 uM of N-(2-(1H-Indol-3-yl)ethyl)-1-(4-bromobenzoyl)-9H-pyrido(3,4-b)indole-3-carboxamide by Chou-Talalay method; assay type: functional
[2] = Antiproliferative activity against docetaxel-resistant human MDA-MB-231-DTR cells assessed as reduction in cell viability incubated for 72 hrs by sulforhodamine B assay; assay type: functional, cell-based; conditions: MDA-MB-231, 72 h
[3] = Synergistic antiproliferative activity against docetaxel-resistant human MDA-MB-231-DTR cells assessed as combination index at 2 uM incubated for 72 hrs in presence of 8 uM of N-(2-(1H-Indol-3-yl)ethyl)-1-(4-bromobenzoyl)-9H-pyrido(3,4-b)indole-3-carboxamide by Chou-Talalay method; assay type: functional
[4] = Synergistic antiproliferative activity against docetaxel-resistant human MDA-MB-231-DTR cells assessed as combination index at 2 uM incubated for 72 hrs in presence of 2 uM of N-(2-(1H-Indol-3-yl)ethyl)-1-(4-bromobenzoyl)-9H-pyrido(3,4-b)indole-3-carboxamide by Chou-Talalay method; assay type: functional
[5] = Synergistic antiproliferative activity against docetaxel-resistant human MDA-MB-231-DTR cells assessed as combination index at 1 uM incubated for 72 hrs in presence of 4 uM of N-(2-(1H-Indol-3-yl)ethyl)-1-(4-bromobenzoyl)-9H-pyrido(3,4-b)indole-3-carboxamide by Chou-Talalay method; assay type: functional
[6] = Synergistic antiproliferative activity against docetaxel-resistant human MDA-MB-231-DTR cells assessed as combination index at 1 uM incubated for 72 hrs in presence of 8 uM of N-(2-(1H-Indol-3-yl)ethyl)-1-(4-bromobenzoyl)-9H-pyrido(3,4-b)indole-3-carboxamide by Chou-Talalay method; assay type: functional
[7] = Synergistic antiproliferative activity against docetaxel-resistant human MDA-MB-231-DTR cells assessed as combination index at 4 uM incubated for 72 hrs in presence of 4 uM of N-(2-(1H-Indol-3-yl)ethyl)-1-(4-bromobenzoyl)-9H-pyrido(3,4-b)indole-3-carboxamide by Chou-Talalay method; assay type: functional
[8] = Fold resistance, ratio of IC50 for antiproliferative activity against docetaxel-resistant human MDA-MB-231-DTR cells to IC50 for antiproliferative activity against human MDA-MB-231 cells; assay type: functional
[9] = test system: MDA-MB-231; assay: Antitumor activity against docetaxel-resistant human MDA-MB-231-DTR cells xenografted in BALB/c mouse assessed as reduction in tumor weight at 5 mg/kg, ip daily for 12 days in presence of N-(2-(1H-Indol-3-yl)ethyl)-1-(4-bromobenzoyl)-9H-pyrido(3,4-b)indole-3-carboxamide; assay type: functional, organism-based; conditions: time 12.0 day
[10] = Synergistic antiproliferative activity against docetaxel-resistant human MDA-MB-231-DTR cells assessed as combination index at 4 uM incubated for 72 hrs in presence of 2 uM of N-(2-(1H-Indol-3-yl)ethyl)-1-(4-bromobenzoyl)-9H-pyrido(3,4-b)indole-3-carboxamide by Chou-Talalay method; assay type: functional
[11] = test system: MDA-MB-231; assay: Antiproliferative activity against human MDA-MB-231 cells assessed as reduction in cell viability incubated for 72 hrs by MTT assay; assay type: functional, cell-based; conditions: MDA-MB-231, 72 h
[12] = test system: MDA-MB-231; assay: Antiproliferative activity against human MDA-MB-231 cells transfected with STAT3 plasmid to overexpress STAT3 assessed as effect on cell viability at 10 to 80 nM incubated for 72 hrs by MTT assay; assay type: functional, cell-based; conditions: dose 10-80 nM
[13] = Synergistic antiproliferative activity against docetaxel-resistant human MDA-MB-231-DTR cells assessed as combination index at 1 uM incubated for 72 hrs in presence of 2 uM of N-(2-(1H-Indol-3-yl)ethyl)-1-(4-bromobenzoyl)-9H-pyrido(3,4-b)indole-3-carboxamide by Chou-Talalay method; assay type: functional
[14] = test system: MDA-MB-231; assay: Antitumor activity against docetaxel-resistant human MDA-MB-231-DTR cells xenografted in BALB/c mouse assessed as tumor growth inhibition at 5 mg/kg, ip daily for 12 days; assay type: functional, organism-based; conditions: time 12.0 day
[15] = Synergistic antiproliferative activity against docetaxel-resistant human MDA-MB-231-DTR cells assessed as combination index at 2 uM incubated for 72 hrs in presence of 4 uM of N-(2-(1H-Indol-3-yl)ethyl)-1-(4-bromobenzoyl)-9H-pyrido(3,4-b)indole-3-carboxamide by Chou-Talalay method; assay type: functional
[16] = test system: MDA-MB-231; assay: Antitumor activity against docetaxel-resistant human MDA-MB-231-DTR cells xenografted in BALB/c mouse assessed as reduction in tumor volume at 5 mg/kg, ip daily for 12 days in presence of N-(2-(1H-Indol-3-yl)ethyl)-1-(4-bromobenzoyl)-9H-pyrido(3,4-b)indole-3-carboxamide; assay type: functional, organism-based; conditions: time 12.0 day
[17] = Antiproliferative activity against docetaxel-resistant human MDA-MB-231-DTR cells assessed as reduction in cell viability incubated for 72 hrs by MTT assay; assay type: functional, cell-based; conditions: MDA-MB-231, 72 h
[18] = test system: MDA-MB-231; assay: Antiproliferative activity against SiRNA mediated STAT3 knockdown docetaxel-resistant human MDA-MB-231-DTR cells assessed as restoration of drug sensitivity by measuring cell viability at 0.5 to 4 uM incubated for 72 hrs by MTT assay; assay type: functional, cell-based; conditions: dose 0.5-4 µM

Q: Which CI [1] does the source give for `CC(=O)O[C@@]12CO[C@@H]1C[C@H](O)[C@@]1(C)C(=O)[C@H](O)C3=C(C)[C@@H](OC(=O)[C@H](O)[C@@H](NC(=O)OC(C)(C)C)c4ccccc4)C[C@@](O)([C@@H](OC(=O)c4ccccc4)[C@H]21)C3(C)C` [DOCETAXEL ANHYDROUS] here?
A: The CI was 0.32.

Q: What about the IC50 [2] of the same compound?
A: Its IC50 is 1.98 µM.

Q: What about the CI [3] of the same compound?
A: The CI was 0.45.

Q: What about the CI [4] of the same compound?
A: Its CI is 0.23.

Q: What about the CI [5] of the same compound?
A: The CI was 0.38.

Q: And the CI [6]?
A: Its CI is 0.66.

Q: What about the CI [7] of the same compound?
A: Its CI is 0.37.

Q: And the “Ratio IC50” value [8]?
A: Its value is 103.5.

Q: And the Activity [9]?
A: The Activity was “Active”.

Q: And the CI [10]?
A: Its CI is 0.32.

Q: What about the IC50 [11] of the same compound?
A: The IC50 was 0.02 µM.

Q: And the Activity [12]?
A: The Activity was “inactive”.

Q: What about the CI [13] of the same compound?
A: The CI was 0.26.

Q: What about the Activity [14] of the same compound?
A: Its Activity is “inactive”.

Q: What about the CI [15] of the same compound?
A: The CI was 0.53.

Q: And the Activity [16]?
A: Its Activity is “Active”.

Q: What about the IC50 [17] of the same compound?
A: The IC50 was 4.68 µM.

Q: What about the Activity [18] of the same compound?
A: The Activity was “Active”.

From ChEMBL document CHEMBL5380808, “Design, Synthesis, and Biological Activity of Marinacarboline Analogues as STAT3 Pathway Inhibitors for Docetaxel-Resistant Triple-Negative Breast Cancer” (J Med Chem, 2023)
